Patent US20200223889A1, “Bicyclic Compounds Capable of Binding to Melanocortin 4 Receptor” (Novo Nordisk A/S, priority 2017, published 2020)
Positions of bridges follow the written chain, without caps; N, C: chain ends. Non-standard residues stand in square brackets, D forms with d. Residues, ends and D or L forms follow the SMILES beside them. Thz = O=C(O)[C@@H]1CSCN1

Assay: In vivo obese model: DIO mice treated once daily, food intake and body weight
Protocol: Stimulation of MC4R signaling is reported to modulate energy intake and expenditure in both humans and rodents. In order to test the effect of MC4R agonists on food intake and body weight, diet-induced obese (DIO) mice were treated once daily with compounds to assess weight loss efficacy.
All animal protocols were approved by an Institutional Animal Care and Use Committee and Ethical Review Committee of Novo Nordisk. Animals were housed according to Novo Nordisk rodent housing standards, and were given ad libitum access to food and water under controlled lighting (12 h:12 h light/dark cycle; lights off 17:00-05:00), temperature (23±2° C.) and relative humidity (50±20%) conditions. Diet-induced obese (DIO) male C57BL/6J mice maintained on a high fat diet (60% kcal fat, 5.24 kcal/gram; RD12492, Research Diets, New Brunswick, N.J., USA) for 22 weeks were obtained from Charles River (France). Upon arrival, the mice were single-housed (one mouse per cage) and allowed to acclimate to their new environment for two weeks prior to the start of treatment.
Prior to initiation of the study, animals were single-housed and acclimated to handling for 7 days. The DIO mice were distributed into groups (n=8/group) such that statistical variations in the mean and standard deviations of fat mass and body weight were minimized between groups. Animals were dosed once daily, subcutaneously at 16:00 with either vehicle or compound
Body weight and food intake were measured immediately prior to dosing each day. The average starting body weight of the mice prior to start of treatment was 47.2±0.2 grams.

[1] = 0.3 μmol/kg once daily s.c., day 1, mean ± SEM
[2] = 0.3 μmol/kg once daily s.c., day 2, mean ± SEM
[3] = 0.3 μmol/kg once daily s.c., day 3, mean ± SEM
[4] = 0.3 μmol/kg once daily s.c., day 4, mean ± SEM
[5] = 0.3 μmol/kg once daily s.c., day 5, mean ± SEM
[6] = 0.3 μmol/kg once daily s.c., day 6, mean ± SEM
[7] = 0.3 μmol/kg once daily s.c., day 7, mean ± SEM
[8] = 0.3 μmol/kg once daily s.c., day 8, mean ± SEM
[9] = 0.3 μmol/kg once daily s.c., day 9, mean ± SEM
[10] = 0.3 μmol/kg once daily s.c., day 10, mean ± SEM
[11] = 0.3 μmol/kg once daily s.c., day 11, mean ± SEM
[12] = 0.3 μmol/kg once daily s.c., day 12, mean ± SEM
[13] = 0.3 μmol/kg once daily s.c., day 13, mean ± SEM
[14] = 0.3 μmol/kg once daily s.c., day 14, mean ± SEM
[15] = 0.3 μmol/kg once daily s.c., day 15, mean ± SEM
[16] = 0.3 μmol/kg once daily s.c., day 16, mean ± SEM
[17] = 0.3 μmol/kg once daily s.c., day 17, mean ± SEM
[18] = 0.3 μmol/kg once daily s.c., day 18, mean ± SEM
[19] = 0.3 μmol/kg once daily s.c., day 19, mean ± SEM
[20] = 0.3 μmol/kg once daily s.c., day 20, mean ± SEM
[21] = 1.5 μmol/kg once daily s.c., day 1, mean ± SEM
[22] = 1.5 μmol/kg once daily s.c., day 2, mean ± SEM
[23] = 1.5 μmol/kg once daily s.c., day 3, mean ± SEM
[24] = 1.5 μmol/kg once daily s.c., day 4, mean ± SEM
[25] = 1.5 μmol/kg once daily s.c., day 5, mean ± SEM
[26] = 1.5 μmol/kg once daily s.c., day 6, mean ± SEM
[27] = 1.5 μmol/kg once daily s.c., day 7, mean ± SEM
[28] = 1.5 μmol/kg once daily s.c., day 8, mean ± SEM
[29] = 1.5 μmol/kg once daily s.c., day 9, mean ± SEM
[30] = 1.5 μmol/kg once daily s.c., day 10, mean ± SEM
[31] = 1.5 μmol/kg once daily s.c., day 11, mean ± SEM
[32] = 1.5 μmol/kg once daily s.c., day 12, mean ± SEM
[33] = 1.5 μmol/kg once daily s.c., day 13, mean ± SEM
[34] = 1.5 μmol/kg once daily s.c., day 14, mean ± SEM
[35] = 1.5 μmol/kg once daily s.c., day 15, mean ± SEM
[36] = 1.5 μmol/kg once daily s.c., day 16, mean ± SEM
[37] = 1.5 μmol/kg once daily s.c., day 17, mean ± SEM
[38] = 1.5 μmol/kg once daily s.c., day 18, mean ± SEM
[39] = 1.5 μmol/kg once daily s.c., day 19, mean ± SEM
[40] = 1.5 μmol/kg once daily s.c., day 20, mean ± SEM

SMILES: C[C@@H]1NC(=O)[C@H](CCCCN)NC(=O)[C@@H]2CSSC[C@H](NC(=O)[C@H](Cc3c[nH]c4ccccc34)NC(=O)[C@H](C)NC(=O)[C@@H](CCCCN)NC1=O)C(=O)N1CSC[C@H]1C(=O)N[C@@H](Cc1c[nH]cn1)C(=O)N[C@H](Cc1ccccc1)C(=O)N[C@@H](Cc1c[nH]cn1)C(=O)N[C@@H](Cc1c[nH]c3ccccc13)C(=O)N2 [Chem. 114, c[c[Cys-THAZ-His-D-Phe-His-Trp- Cys]-Lys-Ala-D-Lys-Ala-Trp]] (cyclo(AWC[Thz]H[dF]HWCKA[dK]); disulfide 3-9)
- Daily food intake, kcals (0.3 μmol/kg once daily s.c., day 0, mean ± SEM): 13.4 ± 0.6 kcals
- Cumulative food intake, kcals [1]: 7.7 ± 0.5 kcals
- Daily food intake, kcals [1]: 7.7 ± 0.5 kcals
- Relative body weight, % initial [1]: 96 ± 0.3 % initial
- Cumulative food intake, kcals [2]: 13.6 ± 1.5 kcals
- Daily food intake, kcals [2]: 6 ± 1.2 kcals
- Relative body weight, % initial [2]: 94.2 ± 0.3 % initial
- Cumulative food intake, kcals [3]: 23.5 ± 2.1 kcals
- Daily food intake, kcals [3]: 9.9 ± 0.9 kcals
- Relative body weight, % initial [3]: 93.6 ± 0.5 % initial
- Cumulative food intake, kcals [4]: 34.3 ± 2.5 kcals
- Daily food intake, kcals [4]: 10.7 ± 0.7 kcals
- Relative body weight, % initial [4]: 91.8 ± 0.7 % initial
- Cumulative food intake, kcals [5]: 44.8 ± 2.9 kcals
- Daily food intake, kcals [5]: 10.5 ± 0.8 kcals
- Relative body weight, % initial [5]: 91.1 ± 0.6 % initial
- Cumulative food intake, kcals [6]: 55.6 ± 3.7 kcals
- Daily food intake, kcals [6]: 10.8 ± 0.9 kcals
- Relative body weight, % initial [6]: 89.9 ± 0.9 % initial
- Cumulative food intake, kcals [7]: 67.7 ± 4.3 kcals
- Daily food intake, kcals [7]: 12.1 ± 0.9 kcals
- Relative body weight, % initial [7]: 89.5 ± 0.9 % initial
- Cumulative food intake, kcals [8]: 78.8 ± 4.5 kcals
- Daily food intake, kcals [8]: 11.1 ± 0.6 kcals
- Relative body weight, % initial [8]: 88.6 ± 0.9 % initial
- Cumulative food intake, kcals [9]: 90.8 ± 4.7 kcals
- Daily food intake, kcals [9]: 12.1 ± 0.6 kcals
- Relative body weight, % initial [9]: 88.6 ± 0.9 % initial
- Cumulative food intake, kcals [10]: 103.2 ± 5.3 kcals
- Daily food intake, kcals [10]: 12.3 ± 0.8 kcals
- Relative body weight, % initial [10]: 87.7 ± 1.1 % initial
- Cumulative food intake, kcals [11]: 114.2 ± 5.8 kcals
- Daily food intake, kcals [11]: 11 ± 0.7 kcals
- Relative body weight, % initial [11]: 88.2 ± 1.1 % initial
- Cumulative food intake, kcals [12]: 127.6 ± 6.1 kcals
- Daily food intake, kcals [12]: 13.4 ± 0.6 kcals
- Relative body weight, % initial [12]: 87.2 ± 1.1 % initial
- Cumulative food intake, kcals [13]: 140.8 ± 6.4 kcals
- Daily food intake, kcals [13]: 13.2 ± 0.7 kcals
- Relative body weight, % initial [13]: 87.1 ± 1.2 % initial
- Cumulative food intake, kcals [14]: 153.9 ± 6.9 kcals
- Daily food intake, kcals [14]: 13.2 ± 0.7 kcals
- Relative body weight, % initial [14]: 87.3 ± 1.3 % initial
- Cumulative food intake, kcals [15]: 167.5 ± 7.5 kcals
- Daily food intake, kcals [15]: 13.6 ± 0.7 kcals
- Relative body weight, % initial [15]: 87.4 ± 1.3 % initial
- Cumulative food intake, kcals [16]: 181.2 ± 7.8 kcals
- Daily food intake, kcals [16]: 13.7 ± 0.5 kcals
- Relative body weight, % initial [16]: 87.5 ± 1.3 % initial
- Cumulative food intake, kcals [17]: 195.8 ± 7.9 kcals
- Daily food intake, kcals [17]: 14.5 ± 0.5 kcals
- Relative body weight, % initial [17]: 87.4 ± 1.3 % initial
- Cumulative food intake, kcals [18]: 211 ± 8.3 kcals
- Daily food intake, kcals [18]: 15.3 ± 0.6 kcals
- Relative body weight, % initial [18]: 87.9 ± 1.4 % initial
- Cumulative food intake, kcals [19]: 225.4 ± 8.7 kcals
- Daily food intake, kcals [19]: 14.3 ± 0.8 kcals
- Relative body weight, % initial [19]: 88.6 ± 1.4 % initial
- Cumulative food intake, kcals [20]: 241.2 ± 8.5 kcals
- Daily food intake, kcals [20]: 15.9 ± 0.5 kcals
- Relative body weight, % initial [20]: 88.9 ± 1.3 % initial
- reduction in body weight, relative to initial body weight (0.3 μmol/kg once daily subcutaneously): 11.1±1.3%
- Daily food intake, kcals (1.5 μmol/kg once daily s.c., day 0, mean ± SEM): 13.9 ± 1.3 kcals
- Cumulative food intake, kcals [21]: 5.5 ± 0.8 kcals
- Daily food intake, kcals [21]: 5.5 ± 0.8 kcals
- Relative body weight, % initial [21]: 95.1 ± 0.4 % initial
- Cumulative food intake, kcals [22]: 10.7 ± 1.4 kcals
- Daily food intake, kcals [22]: 5.2 ± 0.8 kcals
- Relative body weight, % initial [22]: 93 ± 0.4 % initial
- Cumulative food intake, kcals [23]: 19.8 ± 2.2 kcals
- Daily food intake, kcals [23]: 9.1 ± 0.8 kcals
- Relative body weight, % initial [23]: 92.1 ± 0.6 % initial
- Cumulative food intake, kcals [24]: 30.5 ± 3.1 kcals
- Daily food intake, kcals [24]: 10.7 ± 1.2 kcals
- Relative body weight, % initial [24]: 91.3 ± 0.7 % initial
- Cumulative food intake, kcals [25]: 41.1 ± 4 kcals
- Daily food intake, kcals [25]: 10.7 ± 0.9 kcals
- Relative body weight, % initial [25]: 90.6 ± 0.9 % initial
- Cumulative food intake, kcals [26]: 51.7 ± 4.6 kcals
- Daily food intake, kcals [26]: 10.6 ± 0.8 kcals
- Relative body weight, % initial [26]: 89.6 ± 0.8 % initial
- Cumulative food intake, kcals [27]: 61.9 ± 5.4 kcals
- Daily food intake, kcals [27]: 10.2 ± 1 kcals
- Relative body weight, % initial [27]: 88.6 ± 0.9 % initial
- Cumulative food intake, kcals [28]: 73.8 ± 5.8 kcals
- Daily food intake, kcals [28]: 11.9 ± 0.7 kcals
- Relative body weight, % initial [28]: 87.8 ± 0.8 % initial
- Cumulative food intake, kcals [29]: 86.2 ± 6.4 kcals
- Daily food intake, kcals [29]: 12.4 ± 0.8 kcals
- Relative body weight, % initial [29]: 87.8 ± 1 % initial
- Cumulative food intake, kcals [30]: 97.5 ± 7.5 kcals
- Daily food intake, kcals [30]: 11.3 ± 1.2 kcals
- Relative body weight, % initial [30]: 87.1 ± 0.9 % initial
- Cumulative food intake, kcals [31]: 110.4 ± 8.4 kcals
- Daily food intake, kcals [31]: 12.8 ± 1.4 kcals
- Relative body weight, % initial [31]: 86.9 ± 0.9 % initial
- Cumulative food intake, kcals [32]: 123.3 ± 9.2 kcals
- Daily food intake, kcals [32]: 12.9 ± 0.9 kcals
- Relative body weight, % initial [32]: 86.6 ± 1.1 % initial
- Cumulative food intake, kcals [33]: 136.4 ± 9.8 kcals
- Daily food intake, kcals [33]: 13.2 ± 0.7 kcals
- Relative body weight, % initial [33]: 86.7 ± 1.3 % initial
- Cumulative food intake, kcals [34]: 149.3 ± 10.7 kcals
- Daily food intake, kcals [34]: 12.9 ± 1.1 kcals
- Relative body weight, % initial [34]: 86.7 ± 1.3 % initial
- Cumulative food intake, kcals [35]: 162.8 ± 11.1 kcals
- Daily food intake, kcals [35]: 13.5 ± 0.6 kcals
- Relative body weight, % initial [35]: 86 ± 1.2 % initial
- Cumulative food intake, kcals [36]: 175.1 ± 11.7 kcals
- Daily food intake, kcals [36]: 12.2 ± 0.7 kcals
- Relative body weight, % initial [36]: 86 ± 1.3 % initial
- Cumulative food intake, kcals [37]: 188.7 ± 12.2 kcals
- Daily food intake, kcals [37]: 13.6 ± 0.8 kcals
- Relative body weight, % initial [37]: 85.7 ± 1.2 % initial
- Cumulative food intake, kcals [38]: 202.5 ± 13.1 kcals
- Daily food intake, kcals [38]: 13.8 ± 1 kcals
- Relative body weight, % initial [38]: 85.9 ± 1.2 % initial
- Cumulative food intake, kcals [39]: 217 ± 13.9 kcals
- Daily food intake, kcals [39]: 14.5 ± 0.9 kcals
- Relative body weight, % initial [39]: 86.4 ± 1.3 % initial
- Cumulative food intake, kcals [40]: 231.8 ± 13.6 kcals
- Daily food intake, kcals [40]: 14.8 ± 0.8 kcals
- Relative body weight, % initial [40]: 86.8 ± 1.3 % initial
- reduction in body weight, relative to initial body weight (1.5 μmol/kg once daily subcutaneously): 13.2±1.3%
- food intake (in words) (once daily subcutaneous treatment): transient reduction in food intake that returned to baseline levels during the second week of treatment
